Values quoted from earlier work as cited in US20180255771A1, “CONTROLLED GAS PHASE RELEASE OF NON AQUEOUS PHASE LIQUID ESSENTIAL OIL COMPOUNDS FOR AROMATHERAPY, FRAGRANCE AND INSECTICIDAL ACTIVITY” (priority 2015, published 2018).

How the values were obtained:
Ixodes ricinus = conditions: for repellency to Ixodes ricinus compared with DEET: 10 ug dose; for repellency to Ixodes ricinus: 1 ug dose
[1] = at 20° C.
[2] = USEPA conclusion

Compound	repellency to Ixodes ricinus compared with DEET (Ixodes ricinus)	repellency to Ixodes ricinus (Ixodes ricinus)	other results
Cc1ccc(O)c(O)c1 [4-Methyl-1,2-benzenediol]	as repellent as DEET		
C=CCc1cc(OC)c(O)c(OC)c1 [4-Allyl-2,6-dimethoxyphenol]	as repellent as DEET		
CCN(CC)C(=O)c1cccc(C)c1 [DEET, N,N-diethyl-meta-toluamide]		not reported to be effective	vapor pressure [1]: 0.0056 mm Hg; risks to humans or the environment [2]: will generally not cause unreasonable risks
C=CCc1ccc(O)c(OC)c1 [eugenol]			repelling ticks (Ixodes ricinus) compared with DEET (Ixodes ricinus; 100 ug dose, DEET at a 100 ug dose): as effective at repelling ticks
CCc1ccc(O)c(O)c1 [4-Ethyl-1,2-benzenediol]	as repellent as DEET	statistically significantly more repellent	
